Experiment: gradient 5% acetonitrile 3 min, to 50% in 2 min, to 85% in 15 min, held 3 min, 100 µL/min
Conditions: column: Zorbax Extend-C18 2.1 x 50 mm; eluents: water / acetonitrile, 0.1% formic acid
Summary of the method: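 Pure standards were analyzed in mixtures of ~100 molecules using HPLC coupled to a quadrupole time-of-flight mass spectrometer, in both positive and negative ionization mode. Separation used a Zorbax Extend-C18 column (2.1 × 50 mm, 1.8 μm) at 100 μL/min, with water and acetonitrile each containing 0.1% formic acid. Dead and dwell volumes were 40 μL and 900 μL, and data were collected over 3 months. Retention time was read from computationally picked adduct peaks, each inspected manually.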

Compound | RP-LC retention time [s]
CCOC(=O)c1ccccc1NC(=O)N(Cc1cc(=O)[nH]c2ccccc12)CC(C)C | 1090
Cc1ccc(-c2csc(NC(=O)COc3ccc(Cl)cc3C)n2)cc1 | 1350
CCCN1CCCCc2cc(C(=O)NCC(N)=O)sc21 | 686
CCN1c2ccc(F)cc2C(=O)NC12CCN(C(=O)c1cccc(C)c1)CC2 | 827
COc1ccccc1CNC(=O)c1cn(-c2cc(N3CCOCC3)ncn2)cn1 | 757
Cc1oc(-c2ccc(C(=O)NCCCN3CCCC3=O)cc2)nc1CN1CCc2ccccc21 | 853
CN(C)C(=O)N1CC(c2nc(-c3ccc(F)cc3)no2)C2(CCOCC2)C1 (stereo unspecified) | 790
CC(C(=O)NCC1CCCO1)N1C(=O)C2CCCCN2C(=O)c2ccccc21 (stereo unspecified) | 664
CNC(=O)C1CCCN(c2nc3ncn(CC(=O)NCc4ccc5c(c4)OCO5)c(=O)c3s2)C1 (stereo unspecified) | 618
COc1cccc(S(=O)(=O)N2CCC3(CC2)NCCCN=C3NC2CCCCC2)c1 | 759
CSc1cccc(NC(=O)C2CCCN(c3nnc(C)c4c(C)n(-c5ccccc5)nc34)C2)c1 (stereo unspecified) | 798
CCCn1cc(CCNC(=O)Cc2cccc(Cl)c2)c2cccnc21 | 799
CCOc1ccc(NC(=O)NCCC2CCN(S(=O)(=O)c3ccccc3)CC2)cc1 | 836
CC(C)(C)c1ccc(NC(=O)N2CCN(CCNC(=O)c3cccs3)CC2)cc1 | 616
Cc1cc(-c2ccc(S(=O)(=O)N3CCC(C(=O)N4CCCCCC4)CC3)o2)n[nH]1 | 772
c1cc(CN2CCN(c3cnn4c(C5CC5)nnc4c3)CC2)cs1 | 558
CCCCn1cnc2c(-c3ccccc3)cn(CC(=O)NCc3ccco3)c2c1=O | 922
O=C(CN1C(=O)S/C(=C\c2ccccc2)C1=O)NCCN1C(=O)CSC1=O | 746
Cc1cc(C(=O)NCCc2c[nH]c3ccccc23)c2c(C)nn(-c3cccc(Cl)c3C)c2n1 | 1050
O=C1C(c2ccncc2)N(Cc2ccco2)C(=O)CN1c1ccccc1 (stereo unspecified) | 628
O=C(NC1CCN(Cc2ccccc2)CC1)C1CCCN(c2nnc(-n3cccc3)s2)C1 (stereo unspecified) | 659
CCOC(=O)c1ccccc1NC(=O)Cn1cnc2nc(N3CCCC(C(=O)NC)C3)sc2c1=O (stereo unspecified) | 640

Compound | RP-LC retention time [s]
CN1C(=O)NC2(CCN(S(=O)(=O)c3cccnc3)CC2)C1=O | 589
CC(C)NC(=O)C1CCCN(c2nc3ncn(CC(=O)Nc4ccc(Cl)cc4)c(=O)c3s2)C1 (stereo unspecified) | 719
CS(=O)(=O)N1CCC(CNC(=O)CCSc2ccccc2)CC1 | 692
Cc1ccn2c(NC(=O)/C=C/c3ccccc3)c(-c3ccccc3)nc2c1 | 703
Cc1c(C)n(-c2ccc(Cl)cc2)c2ncn(CC(=O)N3CCCC3)c(=O)c12 | 803
Cc1nn(CC(=O)NCCCN2CCCC2)c(=O)c2cc(-c3ccccc3)nn12 | 587
CN(CCNC(=O)NCc1noc2ccccc12)C1CCCCC1 | 558
Cc1ccc(C)c(C(=O)Nc2cccn3cnnc23)c1 | 734
COc1ccccc1C1C2=C(CC(C)(C)CC2=O)Nc2ccccc2N1C(=O)CCC(=O)O (stereo unspecified) | 699
CCN1c2cc(F)ccc2C(=O)NC12CCN(C(=O)c1ccc(C)cc1)CC2 | 807
Cc1c(OC(C)C(=O)O)ccc2c1oc(=O)c1ccccc12 (stereo unspecified) | 847
Cc1ccc(NS(=O)(=O)c2cc(-c3[nH]ncc3C(=O)N3CCCCC3)oc2C)cc1 | 773
Cc1ccc(F)cc1S(=O)(=O)N1CCC2(C1)C(=O)N(C)c1ccccc12 (stereo unspecified) | 955
C=CCN1CCc2cccc3c2[C@H]1Cc1ccc(O)c(O)c1-3 | 659
Cc1cc(N2CCN(c3ccccn3)CC2)n2ncc(-c3ccccc3Cl)c2n1 | 732
CC1OC(O[C@@H]2C=C3CC[C@@H]4[C@H](CC[C@]5(C)[C@@H](c6ccc(=O)oc6)CC[C@]45O)[C@@]3(C)CC2)C(O)C(O)C1O (stereo partly specified) | 691
Cc1sc2ccn(Cc3ccc(F)cc3)c(=O)c2c1C(=O)NC1CC1 | 759
CC1(C(=O)NCc2ccccc2)CCCN(C(=O)Nc2ccc(Br)cc2)C1 (stereo unspecified) | 980
O=C(NCc1csc(-c2ccccc2)n1)C1CCN(S(=O)(=O)c2ccc(F)cc2)CC1 | 910
CCS(=O)(=O)N1CC(=O)N(c2ccc(C)c(Cl)c2)C(C)(C(=O)NCc2ccccc2)C1 (stereo unspecified) | 919
O=C(Cc1ccc(Cl)cc1)N1CCN(C(=O)c2nnn3c2COC(c2ccccc2)C3)CC1 (stereo unspecified) | 921
CCOC(=O)CN1C(=O)CC(C[C@@H](O)C2C[C@@H](C)C[C@H](C)C2=O)CC1=O (stereo partly specified) | 821

Compound | RP-LC retention time [s]
Cc1cc(F)ccc1NC(=O)COc1cc(C(F)(F)F)c2c(C)nn(C)c2n1 | 985
COc1cc(C(=O)N(Cc2ccc(C(C)C)cc2)C2CCS(=O)(=O)C2)cc(OC)c1OC (stereo unspecified) | 968
O=C(NCc1ccccc1)Nc1cnc2c(c1)CCC2 | 557
COc1ccc(S(=O)(=O)N(CC(=O)NO)CC(C)C)cc1 | 615
Cc1nnc(N2CCCC(C(=O)NCCN3CCOCC3)C2)c2nn(-c3ccc(Cl)cc3)c(C)c12 (stereo unspecified) | 590
COc1ccc(N(Cc2nnc3n2CCCCC3)C(=O)Nc2ccccc2)c(OC)c1 | 713
COc1cccc(N2CCN(c3ccnc(SCC(=O)NCCCc4ccccc4)n3)CC2)c1 | 804
CC(=O)N1CCN(c2ncc(C(=O)Nc3ccccc3)c(N)n2)CC1 | 607
COCCCNc1c(-c2cccc(F)c2)nc2sc(C(N)=O)c(C)n12 | 741
CC(NC(=O)C(=O)N1CCCCC1)C(c1cccs1)N1CCN(c2ccc(F)cc2)CC1 (stereo unspecified) | 760
N#Cc1ccc(-c2nc(-c3ccc4c(c3)nnn4CCC(=O)N3CCOCC3)no2)c(F)c1 | 674
COc1ccc(NC(=O)C2CCCN(S(=O)(=O)c3cc(-c4noc(C)n4)cs3)C2)cc1Cl (stereo unspecified) | 991
COCC1CN(S(=O)(=O)Cc2cccc(F)c2)CC12CCNCC2 (stereo unspecified) | 623
COc1ccc(-c2ncc3c(n2)CCN(S(=O)(=O)Cc2ccccc2)C3)cc1 | 976
O=C1CCCCC(Cc2ccccc2)(C(=O)NCc2ccc(Cl)cc2)N1 (stereo unspecified) | 866
O=C(Nc1cccc(-c2nc3ncccc3o2)c1)[C@@H]1OCCN(C2CC2)[C@H]1c1ccccc1 | 678
COc1cc(NC(=O)N2CCc3cn(C)c4cccc(c34)C2)cc(OC)c1OC | 801
Cc1cc(C)cc(NC(=O)NC2CCN(c3ccc(F)c(C)c3)C2=O)c1 (stereo unspecified) | 874
O=C(c1ccc(F)cc1F)N1CCc2nc(-c3ccc(Cl)cc3)ncc2C1 | 1060
O=C(NCCCc1ccccc1)C1CCN(c2ncnc3c2oc2ccccc23)CC1 | 976
CCOC(=O)C1CCN(c2ncccc2-c2nnc(-c3ccc(Cl)cc3)o2)CC1 | 1240
COc1ccc(-c2nnc(-c3cc(S(=O)(=O)NC(C)(C)CO)ccc3Cl)o2)cc1 | 837

Compound | RP-LC retention time [s]
CCC(=O)N1CCC2(C1)C(=O)N(C)c1ccc(OC)cc12 (stereo unspecified) | 652
Cc1ccc(N(C)S(=O)(=O)c2ccc(-c3c(C)noc3C)cc2)cc1 | 1060
Cc1nc(C)c(C(=O)Nc2nc(-c3ccc(-c4ccccc4)cc3)cs2)s1 | 1210
CCOCCn1c(=O)c2c(nc3n2CCN3c2cc(Cl)ccc2OC)n(C)c1=O | 774
Cc1nc(CNC(=O)C2CCN(C(=O)Nc3ccc(Br)cc3F)CC2)cs1 | 699
CCCNC(=O)CCc1nc2ccccc2n(CC(=O)Nc2ccc(OC)cc2)c1=O | 746
Cc1cccc(NC(=O)C2CCCN2S(=O)(=O)c2cccc3nsnc23)n1 (stereo unspecified) | 798
O=C(Nc1ccccc1F)C1CCc2sc(C(=O)N3CCCC3)cc2C1 (stereo unspecified) | 761
O=S(=O)(c1cccc2nsnc12)N1CCC(Cc2nc(-c3cccnc3)n[nH]2)C1 (stereo unspecified) | 633
CCn1nc(C)n2cc(S(=O)(=O)NCc3ccc(Cl)cc3)cc2c1=O | 904
COCCCNC(=O)C1CCCN(C(=O)c2cc(C)cc(C)c2)C1 (stereo unspecified) | 700
CCOc1ccc(CN2C(=O)C3(CCOCC3)CC2c2nnnn2C(C)(C)C)cc1OC (stereo unspecified) | 754
COc1ccc(N2CCN(c3ncccc3-c3nc(-c4ccc(Cl)cc4)no3)CC2)cc1 | 1230
CCCc1ccc(S(=O)(=O)N2CCCC2c2nc(-c3ccc(C)cc3)no2)cc1 (stereo unspecified) | 1320
COc1cccc(CN2C[C@@H](CO)[C@H](c3ccccn3)C2)c1OC | 592
O=C(Nc1cccc([N+](=O)[O-])c1)C(=O)N1CCN(c2cccc(Cl)c2)CC1 | 950
Cc1cccc(-c2nc3ccccn3c2NC(=O)NCCc2ccccc2)c1 | 680
COc1ccc(-c2nc3ncccn3c2Nc2ccc(C)cc2C)cc1 | 800
Cc1ccnc(NC(c2ccccc2)c2ccc3cccnc3c2O)c1 (stereo unspecified) | 752
CCOCCCn1c(SCc2nc(-c3ccc(F)cc3)no2)nc2ccccc2c1=O | 1150

From the METLIN SMRT retention time set (Domingo-Almenara et al. 2019)
